# Measurements reported in article PMC11856857, “Protease-Resistant, Broad-Spectrum Antimicrobial Peptides with High Antibacterial and Antifungal Activity” (Life, 2025).
# Where a SMILES comes first, the peptide text is derived from it.
# How the values were obtained:
# [1] = system: Aspergillus flavus (AF); settings: clinical strain AF1
# Protocol: (§2) Clinically resistant bacterial strains that are classified as “ESKAPE pathogens”, including vancomycin-resistant Enterococcus faecium (VRE), methicillin-resistant S. aureus (MRSA), Klebsiella pneumoniae (KP), Acinetobacter baumannii (AB), P. aeruginosa (PA) by WHO21, multi-drug-resistant Aspergillus flavus (AF), C. albicans (CA), and C. krusei (CK), were provided by Acibadem Labmed.
# (§3) The antibacterial activity of the bacterial strains was determined using the EUCAST broth microdilution method [24]. Bacterial strains were streaked into the MHA and incubated at 37 °C overnight. The initial doses were adjusted to 1024 µg/mL using a peptide concentration measurement kit (Pierce™ Quantitative Fluorometric Peptide Assay, Thermo Scientific™) and serially diluted to 0.125 µg/mL. All samples were tested in triplicate [25, 26]. The antifungal activity of the Candida species was measured in accordance with the guidelines in CLSI document M27-A3 [27].
# [2] = system: 3t3 cell line; type: cell-based, mouse; settings: 24 h
# Protocol: (§1) 3T3 and HaCaT cells were grown in DMEM consisting of 1% pen/strep and 10% FBS. A total of 5 × 10^4 cells were loaded into each well of a 96-well plate and incubated at 37 °C using a 5% CO2 incubator. All samples were measured in triplicate between 0.5–32 µg/mL concentrations and incubated at 37 °C for 24 h in a 5% CO2 incubator. Only cells and Mag-2 were used as negative and positive controls, respectively. After 24 h, cell cytotoxicity was evaluated using a cell proliferation kit (MTT, Roche, Basel, Switzerland) following the kit protocol and analyzed at 550 nm and 690 nm using a microplate reader (Gen5 Synergy HT BioTek). The concentration of peptides that killed 50% of the cells was determined as the IC50 in the cytotoxicity experiments.
# [3] = system: Acinetobacter baumannii (AB)
# Protocol: as §2, §3
# [4] = system: resistant Klebsiella pneumoniae (KP) strain; type: cell-based; settings: resistant (KP) strain
# [5] = system: methicillin-resistant S. aureus (MRSA)
# Protocol: as §3
# [6] = system: C. albicans ATCC 10231; type: cell-based, Candida albicans
# [7] = system: ESKAPE pathogens, multi-drug-resistant A. flavus (AF), and C. albicans (CA) strains
# Protocol: as §2, §3
# [8] = molecular target: T1, proteinase K (Parengyodontium album, UniProt P06873); test: Stability toward enzymatic degradation (protease resistance assay); type: in vitro ADME; settings: peptide 1 mg/mL in TBS (50 mM Tris, 150 mM NaCl, pH 7.6) with 10% DMSO, proteinase K 1 mg/mL (30 U/mg), 37 °C, overnight (also 10 min, 30 min), HPLC at 214 nm
# T1 construct: purchased Qiagen
# T1 sequence (P06873 106-384): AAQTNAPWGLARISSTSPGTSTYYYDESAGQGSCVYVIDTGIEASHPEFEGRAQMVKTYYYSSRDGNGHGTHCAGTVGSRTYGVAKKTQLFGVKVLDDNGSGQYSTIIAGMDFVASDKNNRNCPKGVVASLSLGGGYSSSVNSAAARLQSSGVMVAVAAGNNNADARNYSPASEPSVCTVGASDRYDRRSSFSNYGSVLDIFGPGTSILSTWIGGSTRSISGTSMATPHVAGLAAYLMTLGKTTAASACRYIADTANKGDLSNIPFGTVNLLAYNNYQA
# Protocol: Peptide solutions were prepared at a final concentration of 1 mg/mL in TBS buffer (50 mM Tris, 150 mM NaCl, pH 7.6) including 10% DMSO. The proteinase K solution was adjusted to 1 mg/mL (enzyme activity = 30 U/mg). The peptide solution was then incubated at 37 °C overnight in an orbital shaker. After incubation, the reaction was blocked by adding 1% TFA (100 µL) in water. Peptide solutions with/without the proteinase K enzyme were analyzed at 214 nm using HPLC with an analytic column (AdvanceBio Peptide Plus, 2.1 × 150 mm, 2.7 µm, LC column, Agilent Technologies, Santa Clara, CA, USA) following the linear gradient method (30 min in a range of 5–80% acetonitrile including 0.025% TFA). MIC experiments were repeated to measure biological activities after treating the peptides with proteinase K.
# [9] = system: vancomycin-resistant Enterococcus faecium (VRE)
# Protocol: as §2, §3
# [10] = system: P. aeruginosa (PA)
# Protocol: as §3
# [11] = system: C.albicans (CA)
# Protocol: as §3
# [12] = system: HaCaT cell line; type: cell-based, human; settings: 24 h
# Protocol: as §1
# [13] = system: C.krusei (CK)
# Protocol: as §3
# [14] = system: Klebsiella pneumoniae (KP)
# Protocol: as §3
# [15] = system: S. aureus (ATCC 29213) inoculated wound
# [16] = system: S. aureus (ATCC 29213)-infected silk suture wound; test: Surgical site infection model; type: in vivo, Wistar rats; settings: MICX40, 100 µL topically once, 3 h after treatment; p < 0.01
# Protocol: Two McFarland S. aureus (ATCC 29213) bacteria were used for suture contamination. The 1.5 cm silk sutures (3-0) were incubated in brain heart infusion (BHI) broth at 37 °C, 150 rpm for 10 min. At the end of the incubation, the sutures were dried on sterile filter paper for 10 min. After drying, one of the sutures was placed in BHI broth, and the bacteria were measured. The number of bacteria obtained from the suture was 7 × 10^5 CFU/mL.
# The rats were randomly divided into four groups consisting of seven rats per group and anesthetized with isoflurane. The back of the rat was shaved, sterilized with 70% ethanol, and two 1.5 cm full-thickness wounds were incised centrally on the dorsal midline of the neck. A 1.5 cm S. aureus (ATCC 29213)-infected 3-0 silk suture was placed into the wound incision. A staple was attached to the middle of the incision to prevent the rat from removing the infected suture. After implantation of the suture into the wound, the rats were treated topically once with 100 µL of D-TN6 (MICX40), ampicillin (MICX40), or SF. The animals were decapitated 3 h after treatment. Wound areas were dissected and placed into BHI broth. After homogenization, the bacteria on the wound were counted.
# [17] = MICX40 topically twice a day for 10 days, ELISA, means ± S.E.M.
compound,measurement,setting,value
CC(C)C[C@@H](NC(=O)[C@H](N)CCCNC(=N)N)C(=O)N[C@H](CC(C)C)C(=O)N[C@H](CCCNC(=N)N)C(=O)N[C@H](CC(C)C)C(=O)N[C@H](CC(C)C)C(=O)N[C@H](CC(C)C)C(=O)N[C@H](CCCNC(=N)N)C(=O)N[C@H](CC(C)C)C(=O)N[C@H](CC(C)C)C(=O)N[C@H](CCCNC(=N)N)C(N)=O [D-TN6] (HELM PEPTIDE1{[dR].[dL].[dL].[dR].[dL].[dL].[dL].[dR].[dL].[dL].[dR].[am]}$$$$V2.0),MIC AF1,[1],4 µg/mL
same,IC50 3t3,[2],17.58 µg/mL
same,MIC range against clinical A. baumannii strains,[3]; AB,0.25 to 2 µg/mL
same,MIC AB1,[3]; clinical strain AB1,0.25 µg/mL
same,MIC AB2,[3]; clinical strain AB2,2 µg/mL
same,MIC KP1,[4],0.5 µg/mL
same,MIC KP2,[4],1 µg/mL
same,MIC KP8,[4],1 µg/mL
same,MIC KP9,[4],0.5 µg/mL
same,MIC KP13,[4],0.5 µg/mL
same,MIC KP22,[4],0.5 µg/mL
same,MIC KP28,[4],1 µg/mL
same,MIC KP29,[4],2 µg/mL
same,MIC KP35,[4],8 µg/mL
same,MIC KP40,[4],2 µg/mL
same,MIC KP41,[4],4 µg/mL
same,MIC KP42,[4],2 µg/mL
same,MIC KP46,[4],2 µg/mL
same,MIC KP52,[4],2 µg/mL
same,MIC MRSA 1,[5]; clinical strain MRSA 1,0.5 µg/mL
same,MIC MRSA 2,[5]; clinical strain MRSA 2,1 µg/mL
same,MIC MRSA 3,[5]; clinical strain MRSA 3,1 µg/mL
same,MIC C. albicans,[6],0.5 µg/mL
same,MIC range against seven species resistant to current antibiotics,[7],0.25 to 4 µg/mL
same,Stability toward proteinase K (HPLC),[8],resistant to proteinase K
same,Stability toward proteinase K (HPLC),[8]; listed as D- TN6,highly protease-resistant
same,MIC VRE 1,[9]; clinical strain VRE 1,0.25 µg/mL
same,MIC VRE 2,[9]; clinical strain VRE 2,0.25 µg/mL
same,MIC PA1,[10],1 µg/mL
same,MIC PA2,[10],1 µg/mL
same,MIC PA3,[10],0.5 µg/mL
same,MIC PA4,[10],1 µg/mL
same,MIC CA 1,[11]; clinical strain CA 1,2 µg/mL
same,MIC CA 2,[11]; clinical strain CA 2,2 µg/mL
same,MIC CA 3,[11]; clinical strain CA 3,1 µg/mL
same,IC50 HaCaT,[12],19.64 µg/mL
same,MIC CK 1,[13]; clinical strain CK 1,2 µg/mL
same,MIC CK 2,[13]; clinical strain CK 2,2 µg/mL
same,MIC CK 3,[13]; clinical strain CK 3,2 µg/mL
same,MIC KP1,[14],4 µg/mL
same,MIC KP2,[14],2 µg/mL
same,MIC KP 3,[14],1 µg/mL
same,MIC KP 4,[14],1 µg/mL
same,Serum CRP,"[15]; rat, in vivo",N
same,"indicators of toxicity by ALT, AST, TB, and CRP levels in serum","[15]; rat, in vivo",did not exhibit any indicators of toxicity
same,toxic alterations of liver tissue hepatocytes and stratified epithelium,"[15]; rat, in vivo",did not exhibit any toxic alterations
CC1(C)S[C@@H]2[C@H](NC(=O)[C@H](N)c3ccccc3)C(=O)N2[C@H]1C(=O)O [ampicillin],bacterial counts in wound versus control group,[16],significantly reduced
same,"IL1-β, liver",[15]; [17],705.7 ± 87.07
same,"IL1-β, serum",[15]; [17],826.9 ± 105.5
same,"IL1-β, wound tissue",[15]; [17],1779 ± 45.54
same,"IL-6, liver",[15]; [17],35.51 ± 2.82
same,"IL-6, serum",[15]; [17],50.02 ± 2.04
same,"IL-6, wound tissue",[15]; [17],77.60 ± 4.77
same,"TNF-α, liver",[15]; [17],107.0 ± 8.14
same,"TNF-α, serum",[15]; [17],212.2 ± 9.02
same,"TNF-α, wound tissue",[15]; [17],225.4 ± 12.19
same,wound healing by day 4 versus control group,"[15]; MICX40 topically twice a day, p < 0.01",significantly accelerated
same,Serum ALT,"[15]; rat, in vivo",52.4 ± 3 U/L
same,Serum AST,"[15]; rat, in vivo",161.6 ± 12.8 U/L
same,Serum CRP,"[15]; rat, in vivo",N
same,Serum TB,"[15]; rat, in vivo",0.1 mg/dL
same,"indicators of toxicity by ALT, AST, TB, and CRP levels in serum","[15]; rat, in vivo",did not exhibit any indicators of toxicity
